What was measured:
[1] = Chemiluminescence upon reaction with H2O2 in PBS; type: physicochemical; details: compound 100 μM, H2O2 1 mM, PBS (pH 7.4) (10% DMSO)
Experimental: (§1) All reactions were carried out at room temperature unless stated otherwise. Chemicals and solvents were either A.R. grade or purified by standard techniques. Thin layer chromatography (TLC): silica gel plates Merck 60 F254: compounds were visualized by irradiation with UV light. Column chromatography (FC): silica gel Merck 60 (particle size 0.040-0.063 mm), eluent given in parentheses. Reverse-phase high pressure liquid chromatography (RP-HPLC): C18 5u, 250×4.6 mm, eluent given in parentheses. Preparative RP-HPLC: C18 5u, 250×21 mm, eluent given in parentheses. Fluorescence and chemiluminescence were recorded on Molecular Devices Spectramax i3x.
The respective chemiluminescent kinetic profile is shown in FIG. 1 and the total light emission with [1 mM] or without the presence of H2O2 is shown in FIG. 2.
The chemiluminescent kinetic profile is shown in FIG. 5 and the total light emission with and without the presence of H2O2 is shown in FIG. 6.

[2] = Chemiluminescent emission spectrum in PBS; type: physicochemical; details: compound 100 μM, PBS (pH 7.4) (10% DMSO)
Experimental: as §1

Question: With `COC1(c2ccc(/C=C/c3cc[n+](CCCCCC(=O)O)cc3)c(OCc3ccc(B4OC(C)(C)C(C)(C)O4)cc3)c2Cl)OOC12C1CC3CC(C1)CC2C3` (stereo not drawn) [Ia1] as the molecule, how does the emission maximum ([1]; 37° C.) read?
Answer: 660 nm

Question: With `COC1(c2ccc(/C=C/c3cc[n+]([O-])cc3)c(O)c2Cl)OOC12C1CC3CC(C1)CC2C3` (stereo not drawn) [Ia2] as the molecule, how does the intensity of emission [2] read?
Answer: visible by the naked eye

Question: For `COC1(c2ccc(/C=C/c3cccc[n+]3CCCCCC(=O)O)c(OCc3ccc(B4OC(C)(C)C(C)(C)O4)cc3)c2Cl)OOC12C1CC3CC(C1)CC2C3` (stereo not drawn) [Ia3], which emission maximum ([1]; 26° C.) is on record?
Answer: 650 nm
